Structures can show the parent of a compound that is named as a salt.
What was measured:
Assay in all cases: MIC, broth dilution method in microtitre
[1] = test system: M. catarrhalis ATCC 23246; assay type: cell-based, Moraxella catarrhalis
Procedure: (§1) Using a standard broth dilution method in microtitre, compounds were tested for antibacterial activity. The compounds in the above examples gave minimum inhibitory concentrations (MICs) less than 1 microgram per millilitre against erythromycin-sensitive and erythromycin-resistant strains of Streptococcus pneumoniae and Streptococcus pyogenes.
(§2) In addiffon, the MIC (μg/mL) of test compounds against various organisms was determined including:
(§3) S. aureus Smith ATCC 13709, S. pneumonlae SP030, S. pyogenes 3565, E. faecalis ATCC 29212, H. influenzae ATCC 49247, M. catarrhalis ATCC 23246.

H. influenzae ATCC 49247 = assay type: cell-based, Haemophilus influenzae
Procedure: as §1, §2, §3

S. pyogenes 3565 = assay type: cell-based; conditions: Streptococcus pyogenes
Procedure: as §1, §2, §3

S. pneumoniae SP030 = assay type: cell-based; conditions: Streptococcus pneumoniae
Procedure: as §1, §2, §3

E. faecalis ATCC 29212 = assay type: cell-based; conditions: Enterococcus faecalis, ATCC29212
Procedure: as §1, §2, §3

[2] = test system: S. aureus Smith ATCC 13709; assay type: cell-based; conditions: Staphylococcus aureus, ATCC13709
Procedure: as §1, §2, §3

[3] = test system: erythromycin-resistant strains of Streptococcus pneumoniae; assay type: cell-based
Procedure: as §1

[4] = test system: erythromycin-resistant strains of Streptococcus pyogenes; assay type: cell-based
Procedure: as §1

Row | Molecule | MIC [1] | MIC (H. influenzae ATCC 49247) | MIC (S. pyogenes 3565) | MIC (S. pneumoniae SP030) | MIC (E. faecalis ATCC 29212) | MIC [2] | MIC [3] | MIC [4]
1 | 4″-O-3-[2-(3-Carboxy-7-chloro-1-cyclopropyl-4-oxo-1,4-dihydro-quinolin-6-yloxy)-ethoxy]-propylcarbamoyl}-azithromycin (A) and 4″-O-{3-[2-(3-Carboxy-1-cyclopropyl-4-oxo-1,4-dihydro-quinolin-6-yloxy)-ethoxy]-propylcarbamoyl)-azithromycin (B) [Example 1] | ≤ 2 µg/mL | ≤ 2 µg/mL | – | – | – | – | – | –
2 | CC[C@H]1OC(=O)[C@H](C)[C@@H](O[C@H]2C[C@@](C)(OC)[C@@H](OC(=O)NCCCOCCOc3ccc4c(c3)c(=O)c(C(=O)O)cn4C3CC3)[C@H](C)O2)[C@H](C)[C@@H](O[C@@H]2O[C@H](C)C[C@H](N(C)C)[C@H]2O)[C@](C)(O)C[C@@H](C)CN(C)[C@H](C)[C@@H](O)[C@]1(C)O [Example 2] | – | – | ≤ 1 µg/mL | ≤ 1 µg/mL | ≤ 1 µg/mL | ≤ 1 µg/mL | ≤ 0.25 µg/mL | ≤ 0.25 µg/mL
3 | CC[C@H]1OC(=O)[C@H](C)[C@@H](O[C@H]2C[C@@](C)(OC)[C@@H](OC(=O)NCCNCCOc3ccc4c(c3)c(=O)c(C(=O)O)cn4CC)[C@H](C)O2)[C@H](C)[C@@H](O[C@@H]2O[C@H](C)CC(N(C)C)[C@H]2O)[C@](C)(OC)C[C@@H](C)C(=O)[C@H](C)[C@@H](O)[C@]1(C)O (stereo partly drawn) [Example 3, 4″-O-{2-[2-(3-Carboxy-1-ethyl-4-oxo-1,4-dihydro-quinolin-6-yloxy)-ethylamino]-ethylcarbamoyl}-6-O-methyl-erythromycin A monoformate salt] | – | – | ≤ 1 µg/mL | ≤ 1 µg/mL | ≤ 1 µg/mL | ≤ 1 µg/mL | – | –

— patent US20070141276A1, “Novel 14 and 15 membered ring compounds” (priority 2003, published 2007)
